The record followed here is US5273979A, “C-31 desmethyl FR-900520 cyclic hemiketal immunosuppressant agent” (Merck & Co., Inc., priority 1991, dated 1993).

pIC50: −log10 of the molar value. “Also recorded” adds a separate entry of the source. Like-named read-outs stand apart in the source and are kept apart here.

For assay [1], the system named is Splenic T-cells stimulated with ionomycin + PMA. Briefly: T-cell proliferation assay (ionomycin plus PMA induced T-cell stimulation assay). The assay is classed as cell-based, mouse. The procedure: Cells were pelleted by centrifugation at 1500 rpm for 8 minutes. Contaminating red cells were removed by treating the pellet with ammonium chloride lysing buffer (GIBCO) for 2 minutes at 4° C. Cold medium was added and cells were again centrifuged at 1500 rpm for 8 minutes. T lymphocytes were then isolated by separation of the cell suspension on nylon wool columns as follows: Nylon wool columns were prepared by packing approximately 4 grams of washed and dried nylon wool into 20 ml plastic syringes. The columns were sterilized by autoclaving at 250° F. for 30 minutes. Nylon wool columns were wetted with warm (37° C.) culture medium and rinsed with the same medium. Washed spleen cells resuspended in warm medium were slowly applied to the nylon wool. The columns were then incubated in an upright position at 37° C. for 1 hour. Non-adherent T lymphocytes were eluted from the columns with warm culture medium and the cell suspensions were spun as above.
The cell suspension was immediately distributed into 96 well flat-bottom microculture plates (Costar) at 200 μl/well. […] The proliferation of T lymphocytes was assessed by measurement of tritiated thymidine incorporation. After 44 hours of culturing, the cells were pulse-labelled with 2 μCi/well of tritiated thymidine (NEN, Cambridge, Mass.). After another 4 hours of incubation, cultures were harvested on glass fiber filters using a multiple sample harvester. Radioactivity of filter discs corresponding to individual wells was measured by standard liquid scintillation counting methods (Betacounter). Mean counts per minute of replicate wells were calculated and the results expressed as percent inhibition of tritiated thymidine uptake (proliferation) as follows: [formula]

The target in assay [2] is T1, 31-O-desmethylimmunomycin O-methyltransferase (DIMT) (Streptomyces hygroscopicus, UniProt Q9KID5).
T1 construct: cell-free extract, DEAE-Sepharose pool, or second MonoQ preparation (kinetics)
T1 sequence (Q9KID5 1-260): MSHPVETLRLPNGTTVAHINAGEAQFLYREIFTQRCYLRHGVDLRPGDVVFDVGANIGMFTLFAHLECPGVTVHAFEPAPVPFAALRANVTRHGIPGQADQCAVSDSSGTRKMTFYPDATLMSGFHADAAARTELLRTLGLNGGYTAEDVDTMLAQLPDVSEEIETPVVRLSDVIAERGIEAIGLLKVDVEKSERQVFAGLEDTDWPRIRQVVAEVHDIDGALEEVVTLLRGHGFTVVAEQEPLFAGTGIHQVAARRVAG
As to the kind of experiment: S-adenosyl-L-methionine: 31-O-desmethylimmunomycin O-methyltransferase (DIMT) assay. The assay is classed as biochemical, Streptomyces hygroscopicus var. ascomyceticus. The protocol:
The assay was carried out in 1 ml. mixture containing 0.025 mM 31-desmethylimmunomycin, 1 mM MgSO4 and different quantities of the enzyme source in 50 mM phosphate buffer, pH 7.5. Reaction was initiated by the addition of 1 nmole of ^14 C-SAM (S-adenosyl-L-[methyl-^14 C] methionine with the specific activity of 46 mCi/mmole. Incubation of the complete mixture was carried out at 34° C. for 20 minutes and the reaction was terminated by the addition of ethyl acetate. Product of the reaction was extracted with 2 ml of ethyl acetate and 1 ml of the extract was used for TLC and HPLC analysis. For the analysis of the radioactive reaction product (immunomycin), the ethyl acetate extract was spiked with the standard immunomycin and subjected to the TLC with a plate having plastic support. The plastic sheet was developed in chloroform:methanol (9:1) and area showing standard immunomycin under UV-light was cut and the radioactivity in the cut-strip was measured. The amount of the product formed was calculated from the measured radioactivity. For the HPLC analysis of the product of the enzyme reaction, several enzymatic reaction mixtures were pooled and the extract was subjected to the TLC analysis as above. The area on the silica gel plate showing the band having an Rf value identical with the standard immunomycin was scraped and eluted with ethyl acetate. The ethyl acetate extract was washed with water, dried under nitrogen and the residue was subjected to the HPLC analysis on Partisil 5-ODS-3 column with acetonitrile:water:phosphoric acid (65:35:0.1) as the eluting solvent. One milliliter fractions were collected and a portion of each fraction was examined for the radioactivity.
Examination of the optimal temperature, pH and metal requirement of the DIMT activity was carried out on the enzyme preparation obtained from DEAE-Sepharose column. For kinetic analysis, a preparation which had been purified through a second MonoQ column chromatography was utilized.

Take `CC[C@@H]1C=C2COC1(O)C[C@H](O)[C@@H](C)[C@@H](/C(C)=C/[C@@H]1CC[C@@H](O)[C@H](OC)C1)OC(=O)[C@@H]1CCCCN1C(=O)C(=O)[C@]1(O)O[C@H]([C@@H](OC)C[C@@H](C)C2)[C@@H](OC)C[C@H]1C` [Compound II]: the “Inhibition of T-cell activation (result in words)” value in assay [1] is “positive inhibition of T-cell activation; also recorded: positive results”. For `CC[C@@H]1C=C2COC1(O)C[C@H](O)[C@@H](C)[C@@H](/C(C)=C/[C@@H]1CC[C@@H](O)[C@H](O)C1)OC(=O)[C@@H]1CCCCN1C(=O)C(=O)[C@]1(O)O[C@H]([C@@H](OC)C[C@@H](C)C2)[C@@H](OC)C[C@H]1C` [Compound I], in assay [1], the “Activity versus the FK-506 immunosuppressive activity (result in words)” value is given as “antagonist activity” and the “Inhibition of T-cell activation (result in words)” value is listed as “positive inhibition of T-cell activation”. Moreover, in assay [1] (50 units/ml recombinant IL2 added at the initiation of culture), the “Reversal of inhibition of T-cell proliferation by IL2” value was “reversed”. The negative logarithm of the IC50 (pIC50) (as a rule, −log10 of the IC50, conventionally taken in molar units) in assay [1] (Mus musculus, T-cell, general range, read-out: IC50, generally in the range) is 7.74 to 8.00. With `O=C(O)CN(CCN(CC(=O)O)CC(=O)O)CC(=O)O` [EDTA], the “Inhibition of DIMT activity (result in words)” value (“Inhibition of DIMT activity” for short) in assay [2] is “major inhibition”; in assay [2] (crude extract), “completely inhibited”. As to `Nc1ncnc2c1ncn2[C@@H]1O[C@H](CSCC[C@H](N)C(=O)O)[C@@H](O)[C@H]1O` [S-adenosyl-homocysteine (SAH), S-adenosyl-homocysteine], the “Inhibition of DIMT activity” value in assay [2] was “major inhibition”.

In the case of `N.N.O=S(=O)(O)O` [ammonium sulfate], the “Inhibition of DIMT activity” value in assay [2] (crude extract) was “inhibited”. Consider `Nc1ncnc2c1ncn2[C@@H]1O[C@H](C[C@@H](N)CC[C@H](N)C(=O)O)[C@@H](O)[C@H]1O` [sinefungin], for which, in assay [2], the “Inhibition of DIMT activity” value is listed as “major inhibition”.
